Ki data for eight compounds are collected here from patent US9790230B2 (Hoffmann-La Roche Inc., priority 2015, dated 2017).

Usually Ki stands for the dissociation constant of the complex between target and ligand, obtained from inhibition or displacement.

Structures are written as SMILES. Like-named read-outs stand apart in the source and are kept apart here. Where only a bound is given, the exact number is not on record here.

The target of test [1] is mouse TAAR1 (Mus musculus (Mouse), UniProt Q923Y8). The test can be described thus: Radioligand binding assay on mouse TAAR1.
For test [2], the target named is rat TAAR1 (Rattus norvegicus (Rat), UniProt Q923Y9). The test can be described thus: Radioligand binding assay on rat TAAR1.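 Note: membranes from HEK293 cells stably transfected with rat TAAR1, tritiated TAAR1 radioligand, 1 h incubation at 4 °C, nonspecific binding determined with excess unlabeled ligand.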
Setting [3] is: read-out: Ki (μM) mouse, mouse TAAR1, HEK-293 membranes, first value of cell mouse/rat.
The mark [4] stands for this setting: read-out: Ki (μM) rat, rat TAAR1, HEK-293 membranes, second value of cell mouse/rat.

Sequence of rat TAAR1 (Q923Y9 whole entry): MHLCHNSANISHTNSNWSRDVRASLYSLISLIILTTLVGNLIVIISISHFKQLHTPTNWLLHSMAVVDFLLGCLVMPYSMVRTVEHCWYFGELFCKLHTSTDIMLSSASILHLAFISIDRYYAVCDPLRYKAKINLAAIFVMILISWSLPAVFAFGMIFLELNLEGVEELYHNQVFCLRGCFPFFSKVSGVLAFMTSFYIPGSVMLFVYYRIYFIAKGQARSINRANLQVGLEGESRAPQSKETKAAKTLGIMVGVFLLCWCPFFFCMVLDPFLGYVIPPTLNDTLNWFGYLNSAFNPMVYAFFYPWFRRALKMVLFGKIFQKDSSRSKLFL
Sequence of mouse TAAR1 (Q923Y8 whole entry): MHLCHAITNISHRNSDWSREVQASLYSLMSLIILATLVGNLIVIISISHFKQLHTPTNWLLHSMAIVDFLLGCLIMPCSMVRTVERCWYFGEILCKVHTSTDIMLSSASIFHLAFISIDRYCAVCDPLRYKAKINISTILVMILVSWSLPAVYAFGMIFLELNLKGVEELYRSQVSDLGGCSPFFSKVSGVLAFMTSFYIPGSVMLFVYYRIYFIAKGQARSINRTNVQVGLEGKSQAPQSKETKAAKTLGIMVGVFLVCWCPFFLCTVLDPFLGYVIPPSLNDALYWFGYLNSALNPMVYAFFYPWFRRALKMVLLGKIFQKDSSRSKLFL

On to `FC(F)(F)c1ccc(Nc2ccc([C@H]3O[C@@H]4CN[C@H]3C4)cc2)nc1` [Example 19, N-[4-[(1S,3R,4S)-2-Oxa-5-azabicyclo[2.2.1]heptan-3-yl]phenyl]-5-(trifluoromethyl)pyridin-2-amine], for which the Ki in test [1] came to 0.0071 µM; in test [2], 0.0641 µM.
For `CC(C)c1cc(C(=O)Nc2ccc([C@H]3O[C@@H]4CN[C@H]3C4)cc2)[nH]n1` [Example 43, 3-Isopropyl-N-[4-[(1S,3R,4S)-2-oxa-5-azabicyclo[2.2.1]heptan-3-yl]phenyl]-1H-pyrazole-5-carboxamide] the same measures were 0.0144 µM and 0.167 µM.
With `CCCCc1n[nH]c(C(=O)Nc2ccc([C@@H]3O[C@H]4CN[C@@H]3C4)cc2)c1F` [Example 92, 3-Butyl-4-fluoro-N-[4-[(1R,3S,4R)-2-oxa-5-azabicyclo[2.2.1]heptan-3-yl]phenyl]-111H-pyrazole-5-carboxamide], the results for the Ki in test [1] (setting [3]) and in test [2] (setting [4]) were 0.0033 µM and 0.0879 µM, respectively.
As for `O=C(Nc1ccc(Cl)nc1)c1ccc([C@H]2O[C@@H]3CN[C@H]2C3)cc1` [Example 60, N-(6-Chloro-3-pyridyl)-4-[(1S,3R,4S)-2-oxa-5-azabicyclo[2.2.1]heptan-3-yl]benzamide], the Ki in test [1] was 0.0033 µM; in test [2], 5.34 µM.
As to `CC(C)Cc1n[nH]c(C(=O)Nc2ccc([C@@H]3O[C@H]4CN[C@@H]3C4)cc2)c1F` [Example 100, 4-Fluoro-3-isobutyl-N-[4-[(1R,3S,4R)-2-oxa-5-azabicyclo[2.2.1]heptan-3-yl]phenyl]-11H-pyrazole-5-carboxamide], the Ki was determined as 0.0059 µM in test [1] (setting [3]) and 0.0278 µM in test [2] (setting [4]).
For the compound `O=C(Nc1ccc(Br)cc1)c1ccc([C@H]2O[C@@H]3CN[C@H]2C3)cc1` [Example 56, N-(4-Bromophenyl)-4-[(1S,3R,4S)-2-oxa-5-azabicyclo[2.2.1]heptan-3-yl]benzamide], the Ki is 0.0009 µM in test [1] and 0.0501 µM in test [2].
For the compound `O=C(Nc1ccc([C@@H]2O[C@H]3CN[C@@H]2C3)cc1)c1[nH]nc(C2CC2)c1F` [Example 77, 3-Cyclopropyl-4-fluoro-N-[4-[(1R,3S,4R)-2-oxa-5-azabicyclo[2.2.1]heptan-3-yl]phenyl]-11H-pyrazole-5-carboxamide], the Ki in test [1] (setting [3]) worked out at 0.0048 µM; in test [2] (setting [4]), 0.137 µM.
Turning to `c1ccc([C@@H]2O[C@H]3CN[C@@H]2C3)nc1` [Example 104, (1R,3R,4R)-3-(2-Pyridyl)-2-oxa-5-azabicyclo[2.2.1]heptane], the Ki was greater than 1.49 µM in test [1] and greater than 1.5 µM in test [2].
